Results as given in patent publication US8530520B2, “Cycloalkyl-dione derivatives and methods of their use” (The Trustees Of The University Of Pennsylvania, priority 2011, dated 2013).

Biological target: T1, human TP receptor (Homo sapiens, UniProt P21731)
T1 sequence (P21731 1-343): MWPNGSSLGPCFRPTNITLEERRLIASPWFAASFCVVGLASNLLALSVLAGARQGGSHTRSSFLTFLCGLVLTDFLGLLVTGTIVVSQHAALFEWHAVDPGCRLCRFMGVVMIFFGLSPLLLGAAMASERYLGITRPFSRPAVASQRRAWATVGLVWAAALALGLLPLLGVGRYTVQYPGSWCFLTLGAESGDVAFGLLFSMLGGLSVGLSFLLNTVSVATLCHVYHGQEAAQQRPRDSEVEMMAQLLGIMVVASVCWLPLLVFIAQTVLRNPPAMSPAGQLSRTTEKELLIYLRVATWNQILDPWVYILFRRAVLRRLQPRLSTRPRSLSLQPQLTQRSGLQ
Assay: biochemical

IC50	Compound
203 nM	O=C1C=C(O)C(Cc2cccc(CCNS(=O)(=O)c3ccc(Cl)cc3)c2)C1 (stereo not drawn) [Compound 41, 4-Chloro-N-(3-((2-hydroxy-4-oxocyclopent-2-en-1-yl)methyl)phenethyl)benzenesulfonamide]
328 nM	CC1=C(O)C(Cc2cccc(CCNS(=O)(=O)c3ccc(Cl)cc3)c2)CC1=O (stereo not drawn) [Compound 42, 4-Chloro-N-(3-((2-hydroxy-3-methyl-4-oxocyclopent-2-en-1-yl)methyl)phenethyl)-benzenesulfonamide]
11400 nM	O=C1CCC(O)=C1Cc1cccc(CCNS(=O)(=O)c2ccc(Cl)cc2)c1 [Compound 50, 4-Chloro-N-(3-((2-hydroxy-5-oxocyclopent-1-en-1-yl)methyl)phenethyl)benzenesulfonamide]
> 10000 nM	O=S(=O)(NCCc1cccc(CCCO)c1)c1ccc(Cl)cc1 [Compound 59]
331 nM	O=S(=O)(NCCc1cccc(CCc2nnn[nH]2)c1)c1ccc(Cl)cc1 [Compound 60]
359 nM	O=c1c(O)c(NCc2cccc(CCNS(=O)(=O)c3ccc(Cl)cc3)c2)c1=O [Compound 61]
